Measurements from PMC10154249, “Unique progerin C-terminal peptide ameliorates Hutchinson–Gilford progeria syndrome phenotype by rescuing BUBR1” (Nature Aging, 2023).
“Also recorded” adds a separate entry of the source.

Experiments:
BUBR1–PTBP1 binding = assay: CoIP of PTBP1 and BUBR1 in HEK-293T cells; assay type: cell-based; conditions: UPCP 18 μM, 48 h
Experimental: Detailed descriptions of CoIP were described previously[55],[56]. Cells were harvested and washed three times in cold PBS, then lysed in CoIP buffer (25 mM Tris-HCl (pH 7.5), 150 mM KCl, 5 mM EDTA, and 0.5% NP-40) plus protease inhibitor cocktail tablet (Roche). Incubate on ice and shock lysates on the vortex shaker 15 times for 30 s each. Microcentrifuge in 12,000g for 15 min at 4 °C, collect the supernatant, and incubate with 3 μg primary antibodies with gentle shaking overnight at 4 °C, followed by adding 20–40 μl Pure Proteome Protein A/G Mix Magnetic Beads (Millipore, catalog no. […]02) for 3 h. Wash the beads three times with 1 ml CoIP buffer for 8 min each, resuspend in 50 μl 1× loading buffer, and incubate at 100 °C for 8 min. Throw beads away and analyze by immunoblotting.

[1] = system: SAC signal response (p-H3); assay: Western blot of p-H3 (SAC signal response), nocodazole-treated HGADFN003 cells; assay type: cell-based, human; conditions: nocodazole 200 ng ml^–1 with UPCP
Experimental: Western blot was performed as previously described. Cells were lysed in 1× Laemmli sample buffer after washing twice in cold PBS without calcium and magnesium. Protein concentrations were determined using the bicinchoninic acid (BCA) protein assay. Protein lysates were subjected to SDS–PAGE, transferred to 0.45-μm pore size hydrophobic PVDF transfer membrane (Merck Millipore), detected with the appropriate primary antibodies coupled with horseradish peroxidase-conjugated corresponding secondary antibodies, and visualized using enhanced chemiluminescence ECL reagent (GE Healthcare). The Tanon 5500 high-definition low-illumination CCD system (Tanon FLI Capture v.1.02) was used to capture chemiluminescent signals.

IMR90 cells = assay: CCK8 cell viability of IMR90 cells; assay type: cell-based, human; conditions: CCK8, UPCP 0, 10, 20, 30 μM, 0–72 h (also Ki67, CyclinA2, survival rate)
Experimental: Cell viability was assessed using the Cell Counting Kit-8 (CCK8) (APE, catalog no. k1018). The cells were plated in triplicate in 96-well plates (typically 10,000 cells per 100 μl per well) and were incubated with fresh medium for 24 h. Then, the cells were incubated with different concentrations (0 μM, 10 μM, 20 μM, 30 μM) of UPCP for 0 h, 24 h, 48 h or 72 h. CCK8 solution (10 μl) was added to the well for a 2 h incubation at 37 °C. Absorbance was measured at 450 nm with a 96-well plate reader (Tecan Infinite M NANO^+). Data were analyzed and further processed in i-control v.2.0 and GraphPad Prism v.7.

[2] = system: BubR1 in Lmna^G609G/G609G mice; assay: IHC of BubR1 in tissues of Lmna^G609G/G609G mice; assay type: in vivo, mouse; design: key to BubR1 IHC score: intensity score (0-3) × positive-cell score (0-4); range 0-12; conditions: 20 mg kg^–1 i.p. every other day
Experimental: For UPCP injection, 14-day-old Lmna^G609G/G609G mice were injected intraperitoneally with either PBS or UPCP (20 mg kg^–1, every other day) and wild-type mice were injected with PBS. All phenotypic analyses were performed after 12 weeks of treatment with UPCP. Bodyweight and lifespan were monitored after UPCP treatment. The survival rate was analyzed by the Kaplan–Meier method. We only included mice that were of sufficient bodyweight at the start of the experiment, typically at least 80% of the average littermate weight of the same sex and genotype. All animals meeting criteria for inclusion were then divided randomly into three groups according to genotype (Lmna^+/+, Lmna^G609G/G609G-Mock and Lmna^G609G/G609G-UPCP).
For histological analyses, mice of the indicated genotypes were perfused with PBS, then with 4% paraformaldehyde (PFA). Whole organs were incubated in 4% PFA at 4 °C for 16 h. All samples were paraffin embedded and sectioning by Servicebio. Subsequently, the tissues were deparaffinized and rehydrated before hematoxylin-eosin (HE) or Masson staining or immunohistochemistry (IHC). HE staining was performed using an HE Kit (Absin, catalog no. abs9217), and Masson staining was performed using Masson’s Trichrome Stain Kit (Absin, catalog no. abs9347) according to the manufacturer’s instructions. The thickness of the layers or the areas of fibrosis in the tissues were calculated using ImageJ software by a blinded investigator. For IHC, the sections were completed by the Servicebio. The images were acquired by a microscope (Leica DMi8) and analyzed with Leica Application Suite X v.3.6.0.24 (Leica). For BubR1, cytoplasmic staining in cells was scored on the intensity of staining and the proportion of positive cells by a blinded investigator. The intensity of the staining was graded as 0 (negative, no color), 1 (low positive, light yellow), 2 (positive, brown yellow) or 3 (high positive, brown), and the number of positive cells was graded as 0 (<5%), 1 (5–25%), 2 (25–50%), 3 (51–75%) or 4 (>75%). The final score was defined as staining number score multiplied by staining color score. For lamin B1, p21 or IL-6, the proportion of positive cells was used to quantify the expression of protein in tissues by a blinded investigator.

Substance: H-YGRKKRRQRRRYNLRSRTVLCGTCGQPADKASASGSGAQSPQNCSIM-OH (cysteines drawn unpaired) [UPCP, unique progerin C-terminal peptide]
- binding of BUBR1 to PTBP1 (BUBR1–PTBP1 binding): did not block the binding of BUBR1 to other proteins such as PTBP1
- SAC signal response (p-H3) [1]: repaired the SAC signal response
- effect on proliferation of normal cells (IMR90 cells): had little effect on proliferation of IMR90 cells; also recorded: no obvious effect on the proliferation of normal cells
- BubR1 IHC score ([2]; aorta, No. 1): 7
- BubR1 IHC score ([2]; aorta, No. 2): 8.4
- BubR1 IHC score ([2]; aorta, No. 3): 12
- BubR1 IHC score ([2]; aorta, No. 4): 8.6
- BubR1 IHC score ([2]; aorta, No. 5): 8
- BubR1 IHC score ([2]; aorta, No. 6): 6
- BubR1 IHC score ([2]; lung, No. 1): 1
- BubR1 IHC score ([2]; lung, No. 2): 2
- BubR1 IHC score ([2]; lung, No. 3): 2.4
- BubR1 IHC score ([2]; lung, No. 4): 1.2
- BubR1 IHC score ([2]; lung, No. 5): 1.4
- BubR1 IHC score ([2]; lung, No. 6): 1.2
- BubR1 IHC score ([2]; skin, No. 1): 10.4
- BubR1 IHC score ([2]; skin, No. 2): 8
- BubR1 IHC score ([2]; skin, No. 3): 5.6
- BubR1 IHC score ([2]; skin, No. 4): 7.2
- BubR1 IHC score ([2]; skin, No. 5): 12
- BubR1 IHC score ([2]; skin, No. 6): 12
- BubR1 expression ([2]; skin, esophagus, lung and spleen): increased the expression of BubR1
- BubR1 IHC score ([2]; spleen, No. 1): 7.6
- BubR1 IHC score ([2]; spleen, No. 2): 6.8
- BubR1 IHC score ([2]; spleen, No. 3): 6
- BubR1 IHC score ([2]; spleen, No. 4): 7.8
- BubR1 IHC score ([2]; spleen, No. 5): 7.6
- BubR1 IHC score ([2]; spleen, No. 6): 7.2
